From patent US8586625B2, “Derivatives of taxol and closely related compounds” (priority 2008, dated 2013)
In brackets after ≈: the same amount, converted by molar mass. Entries after “also recorded” stand apart in the source; their conditions may differ.

Key:
6 cancer cell lines = experiment: In vitro anti-tumor activity on 6 cancer cell lines (overall comparison); type: cell-based; details: in words
Procedure: (§1) Cancer cells, HeLa, Caco-2, PC3 prostate, CAPAN, A549, SKBR3 were maintained in a humidified atmosphere at 37° C. and gassed with 5% CO2 in air in air. The cells were incubated with various concentrations of paclitaxel and PACLP. The in vitro cytotoxicity of the drugs was measured by a proliferation assay utilizing tetrazolium dye, MTT ([3-(4,5-[…])-2,5 diphenyl tetrazolium bromid). The experiments were carried out with cells in the exponential growth phase.
(§2) Results of these experiments are presented in graphs 3a-3f, indicating the IC50, (the concentration found to inhibit about fifty percent of the growth of the cancer cell lines).

[1] = tested on: endothelial cells of human (H-1044 EC p7 naïve); experiment: Effect on endothelial cell proliferation (cell count); type: cell-based; details: 48 hours, in words
Procedure: The test was conducted using endothelial cells of human (H-1044 EC p7 naïve). 70,000 cells were grown in each well. After the cells have adhered for 3 hours, the material (paclitaxel or PACLP) was added to the cells. After 48 hours of cell growth the cells were detached by trypsin and counted. The results are set in.

[2] = tested on: hepatocyte cell line HepG2; experiment: Toxicity on hepatocyte cell line HepG2 (MTT test); type: cell-based; details: for CD50 (cytotoxic concentration leading to reduction of 50% of the cell number compared to untreated cells): HepG2, 72 h, MTT test
Procedure: PACLP and paclitaxel were evaluated in vitro using hepatocyte cell line HepG2. Cells were cultured in 96 well plates at a cell density of 20000 cell/well and treated with increasing concentrations of both PACLP and paclitaxel (0-1000 μM) for 72 h. Control cells were treated with an absolute ethanol, diluted in the same way as the tested substances. Cytotoxicity was measured using the MTT test. All experiments were carried out in triplicates and each test was repeated three times.
CD50 (the cytotoxic concentration leading to reduction of 50% of the cell number compared to untreated cells) was at concentration of 5 μM and 100 μM, and 500 μM for paclitaxel, PACLP, and the solvent, respectively.

[3] = tested on: Caco-2 carcinoma of the colon; experiment: MTT proliferation assay, in vitro cytotoxicity; type: cell-based; details: Homo sapiens, FIG. 3b, read-out: calculated EC50
Procedure: as §1, §2

A549 lung cancer = experiment: MTT proliferation assay, in vitro cytotoxicity; type: cell-based; details: Homo sapiens, FIG. 3e, read-out: Calculated EC50
Procedure: as §1, §2

SKBR3 breast carcinoma = experiment: MTT proliferation assay, in vitro cytotoxicity; type: cell-based; details: Homo sapiens, SK-BR-3, FIG. 3f, read-out: calculated EC50
Procedure: as §1, §2

CAPAN = experiment: MTT proliferation assay, in vitro cytotoxicity; type: cell-based; details: 72 h, FIG. 3d, read-out: calculated EC50
Procedure: as §1, §2

HeLa cell line = experiment: MTT proliferation assay, in vitro cytotoxicity; type: cell-based; details: Homo sapiens, FIG. 3a, read-out: calculated EC50
Procedure: as §1, §2

PC3 prostate carcinoma = experiment: MTT proliferation assay, in vitro cytotoxicity; type: cell-based; details: FIG. 3c, read-out: calculated EC50
Procedure: as §1, §2

Balb/c mice = experiment: LD50 test using Balb/c mice; type: in vivo; details: 80-140 mg/kg, observed 4 weeks after injection
Procedure: Balb/c mice were divided into 9 groups, 8 mice in each group (4 males and 4 females). Group one, the control group, were given 50 μl solvent with 150 μL normal saline. Groups 2, 3, 4 and 5 were given 125, 150, 175, 200 mg/kg of PACLP respectively. Groups 6, 7, 8 and 9 were given 80, 100, 120, 140 mg/kg of paclitaxel respectively. Mice were observed 4 weeks after injection. The results are set in FIG. 6. Most of the animals died within the first week after treatment.

| SMILES | anti-tumor activity compared to free paclitaxel (6 cancer cell lines) | cytotoxicity compared to paclitaxel [1] | CD50 (cytotoxic concentration leading to reduction of 50% of the cell number compared to untreated cells) [2] [µM] | cytotoxicity compared to paclitaxel ([2]; hepatocyte cell line HepG2, in words) | EC50 [3] [µg/mL] | EC50 (A549 lung cancer) [µg/mL] | EC50 (SKBR3 breast carcinoma) [µg/mL] | EC50 (CAPAN) [µg/mL] | EC50 (HeLa cell line) [µg/mL] | EC50 (PC3 prostate carcinoma) [µg/mL] | observation before death (Balb/c mice) |
| --- | --- | --- | --- | --- | --- | --- | --- | --- | --- | --- | --- |
| CC(=O)O[C@H]1C(=O)[C@@]2(C)[C@H]([C@H](OC(=O)c3ccccc3)[C@]3(O)C[C@H](OC(=O)[C@H](OC(=O)CCCCC4CCSS4)[C@@H](NC(=O)c4ccccc4)c4ccccc4)C(C)=C1C3(C)C)[C@]1(OC(C)=O)CO[C@@H]1C[C@@H]2O (stereo partly drawn) [PACLP, Paclitaxel-lipoate] | greater anti-tumor activity; also recorded: somewhat more effective than paclitaxel | less cytotoxic | 100 | less cytotoxic | 1.5 (≈ 1.44 µM) | 2.5 (≈ 2.4 µM) | 2 (≈ 1.92 µM) | 5 (≈ 4.8 µM) | 1.5 (≈ 1.44 µM) | 3.5 (≈ 3.36 µM) |  |
| CC(=O)O[C@H]1C(=O)[C@@]2(C)[C@H]([C@H](OC(=O)c3ccccc3)[C@]3(O)C[C@H](OC(=O)[C@H](O)[C@@H](NC(=O)c4ccccc4)c4ccccc4)C(C)=C1C3(C)C)[C@]1(OC(C)=O)CO[C@@H]1C[C@@H]2O [paclitaxel, reference compound] |  |  | 5 |  | 9 (≈ 10.5 µM) | 5.5 (≈ 6.44 µM) | 19 (≈ 22.3 µM) | 11 (≈ 12.9 µM) | 9 (≈ 10.5 µM) | 12 (≈ 14.1 µM) | swelling and redness before death |
